For four molecules, Ki results are on record in BindingDB's records for PubMed 7791120 (Hospital Saint-Antoine, 1995).

Where “and” joins values, the source holds several entries; their conditions need not be identical. Equal entries are not always repeated.

This test has as its target Neurotensin (Cavia porcellus, UniProt P32560).
In the case of `COc1cccc(OC)c1-c1cc(C(=O)N[C@H](C(=O)O)C2CCCCC2)nn1-c1ccnc2cc(Cl)ccc12`, the Ki was 1.7 nM and 4.5 nM. Then `COc1cccc(OC)c1-c1cc(C(=O)N[C@@H](C(=O)O)C2CCCCC2)nn1-c1ccnc2cc(Cl)ccc12` [SR 49711], with 2000 nM and 2100 nM. Next, `COc1cccc(OC)c1-c1cc(C(=O)NC2(C(=O)O)C3CC4CC(C3)CC2C4)nn1-c1ccnc2cc(Cl)ccc12` (centres undefined): 0.99 nM and 2.5 nM. Then `CCC(C)C(N)C(=O)C(C)(CC(=O)C(N)CCCCN)C(C(=O)C(N)Cc1ccc(O)cc1)(C(=O)C1CCCN1)C(N)(C(=O)O)C(=O)C(N)C(C)CC` (centres undefined) [NSC_3025353], with 1600 nM.
